Measurements as given in patent US20100069854A1, “Elastomeric Devices Containing Chlorhexidine/Fatty Acid Salts Made From Fatty Acids of 12 to 18 Carbons” (priority 2008, published 2010).

Experiments:
[1] = Rate of release of chlorhexidine/fatty acid salts from coated polyurethane tubes into DI water; type: physicochemical; conditions: for Cumulative release of the chlorhexidine/fatty acid salts from the coated polyurethane tubes: 1 cm coated tube in DI water, 37° C.; for Time by which approximately all of the salt was released from the coated sample: coated polyurethane tube in DI water
Experimental: A solution of each respective chlorhexidine/fatty acid salt was prepared and used to infuse a sample of elastomeric material. To perform the test, individual samples, 8 cm pieces of polyurethane tube containing a colorant, were surface dip coated in respective solutions of the chlorhexidine/fatty acid salts. The solutions were prepared as follows: 8.6 g of Tecoflex (Noveon, Cleveland, Ohio) was dissolved in 174 g of Tetrahydrofuran and methanol. 5.88 g of chlorhexidine acetate, chlorhexidine laurate, chlorhexidine myristate, chlorhexidine palmitate and chlorhexidine stearate were individually dissolved into the polymer-solvent mixture. The samples were immersed into the solvent-polymer-salt mixture and then dried at room temperature, evaporating the solvent. A polymeric coating was produced on the surface of the tubes. The amounts of chlorhexidine/fatty acid salt adhered per cm of the tube was measured (Table 2) by exhaustively extracting the salt and measuring UV absorbance at 253 nm relative to controls: For each of the samples, the rate of release of chlorhexidine/fatty acid salts into an aqueous solution was determined. To perform the rate of release test, 1 cm from each of the coated polyurethane tubes, were submerged in DeIonized (DI) water and incubated at 37° C. for a period of 28 days to determine the rate of release of the salts from the respective 1 cm samples of coated polyurethane tubing. The water was collected and replaced with fresh water after approximately 2 hours. The water was again collected and replaced with fresh water after the first day and every seven days thereafter. The amount of chlorhexidine/fatty acid salt in the collected water was measured with an Agilent 8453 UV-Vis Diode Array Detector with a manual setup using a cuvette w/path length of 1 cm. Chlorhexidine absorbance was read at 253 nm and concentration was calculated via a calibration curve developed using standards of 1, 5, 10, 20, 30, 35, and 40 μg/mL chlorhexidine acetate in DI Water. The percentage of chlorhexidine/fatty acid salt released from the sample into an aqueous media (percent release) was calculated according to the following equation: Percent release=(cumulative release at that time period/initial content)*100.

[2] = tested on: Pseudomonas aeruginosa ATCC 27853; experiment: Basic broth adherence assay on coated polyurethane tubes; type: cell-based; conditions: for Inhibition of adherence / antimicrobial effect against Pseudomonas aeruginosa (in words): coated polyurethane tubes compared to uncoated control
Experimental: The antimicrobial effectiveness of the coated samples was subjected to different durations of DI water extraction by basic broth adherence assay. For each chlorhexidine/fatty acid salt tested, 3 samples of coated tubing were prepared and assayed. To prepare the inoculum, a culture of Pseudomonas aeruginosa ATCC 27853 was used to challenge the coated polyurethane tubes and controls. The negative control used was a length of uncoated polyurethane tube. The challenge microorganism suspension was prepared as follows: approximately three colonies were removed from a secondary working culture plated on Trypticase Soy Agar (TSA) (BD-Falcon) with 5% sheep's blood and added to 10 ml of Trypticase Soy Broth (TSB). The vial was vortexed for approximately 30 seconds and incubated for 4 hours at 37° C. at 100 rpm. Following incubation, the vial was removed and vortexed. The optical density of the organism suspension was read. The inoculum was then diluted in TSB to a concentration of 5×10^4 colony forming units per milliliter (CFU/mL). This concentration was confirmed by the Miles and Misra drop count method.
The basic broth adherence assay was performed in a 96 well micro titer plate. To each well of the micro titer plate containing either a test article or a control, 900 μl of TSB was added. To this, 100 μl of the adjusted inoculum was added (Note: Due to the 1/10 dilution per well, the starting inoculum concentration of each organism was […] for Pseudomonas aeruginosa). The micro titer plates were then sealed via parafilm® around the edges and wrapped in foil to avoid evaporation of liquid and light contact with the samples. The plates were then placed inside a shaker incubator set at 37° C. and 100 rpm for 24 hours. Incubation at 37° C. then continued until the elapse of 7 days, 14 days, and 21 days, respectively, for each of the 3 samples prepared for each chlorhexidine/fatty acid salt.
At the completion of the respective incubation periods, the samples were rinsed, sonicated, the sonicate was plated and adherence was evaluated. More particularly, following incubation, all samples and controls were dip-rinsed twice in phosphate buffered saline (PBS) to remove the surrounding media. After rinsing, test articles were sonicated in micro titer plate wells containing 1 mL of Dey-Engley (DE) neutralizing broth (Difco). The sonication liquid was then serially diluted, and plated onto the surface of DE neutralizing agar. Plates were incubated at 37° C. for 24 to 48 hours and colonies were counted. Recovery counts were recorded as CFU/mL.

[3] = tested on: Candida albicans ATCC 10231; experiment: Zone of inhibition assay with impregnated polyurethane foam discs; type: cell-based; conditions: for Zone of inhibition compared with the other salts (in words): impregnated polyurethane foam, after several daily transfers / over the 9 day assay
Experimental: To evaluate antimicrobial properties of polyurethane foam samples infused with the various chlorhexidine/fatty acid salts, a zone of inhibition assay was performed. In this assay, 1.4% (w/v) of chlorhexidine acetate, chlorhexidine caprate, chlorhexidine laurate, chlorhexidine myristate, chlorhexidine palmitate and chlorhexidine stearate solutions in methanol were prepared. A supply of 8 mm discs were punched out of a sheet of polyurethane foam (Rynel medical grade polyurethane foam) with biopsy punches (Miltex Kai). Several discs were placed in each of six 50 ml centrifuge tubes. Approximately 5 ml of each of the different methanol/chlorhexidine/fatty acid salt solutions was added to each respective tube. The discs were centrifuged for 5 minutes to remove any air bubbles and soaked for 1 hr to infuse the foam discs with the respective chlorhexidine/fatty acid salt. Infused discs were transferred to clean centrifuge tubes and vacuum dried at 25° C. for 24 hrs to remove any residual solvents. Initial concentrations of salts, impregnated into the punches, were determined by dissolving the impregnated foams and by high pressure liquid chromatography (HPLC) analysis using an Agilent Eclipse XDB-CN 3u 4.6×150 mm column with initial mobile phase=65% DI water/0.2% trifluoroacetic acid (TFA): 35% Acetonitrile/0.2% TFA. Chlorhexidine absorbance was read at 253 nm and concentration was calculated via a chlorhexidine calibration curve. […] To perform the zone of inhibition assay on the impregnated polyurethane foam discs, agar plates were prepared by mixing 11 g Mueller-Hinton cation-adjusted broth and 1.5 g agarose in 500 ml DI water. The agar was autoclaved for 15 minutes at 121° C., 15 psi. 10 ml of the still hot, liquid agar was pipetted onto petri dishes. The challenge organism, Candida albicans ATCC 10231, was cultivated in Trypticase soy broth, standard microbiological growth medium (TSB). Sterile cotton swabs were dipped into the undiluted culture and the plated agar was fully inoculated with swabs. The 8 mm polyurethane foam discs were transferred daily to a freshly inoculated agar for 9 days. The zone of inhibition (ZOI) was measured using calipers. Actual ZOI was measured by subtracting the diameter of the foam (when wet) from the zone measured and dividing by 2. The results are presented in Table 6, with a graphical representation of the ZOI in FIG. 2;

[4] = Incorporation of chlorhexidine salts into silicone tubing (swelling impregnation, extraction, HPLC); type: physicochemical; conditions: for Salt content in silicone elastomeric medical article: one day, equivalent mass of chlorhexidine base extracted;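 as to Salt content in silicone elastomeric medical article: columns differ by chlorhexidine salt concentration in the impregnation solution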
Experimental: Chlorhexidine diacetate, Chlorhexidine dodecanoate and chlorhexidine palmitate were loaded into silicone tubing by first dissolving the chlorhexidine salt in a 90% THF+10% Methanol solution.
Impregnated chlorhexidine was extracted from the tubing by immersing in an excess of THF to fully swell it and then adding an equal volume of water to extract the chlorhexidine salt. The quantity of chlorhexidine was determined by previously enumerated HPLC method. It is reported below for different concentration impregnation solutions in terms of the equivalent mass of chlorhexidine base extracted: […]

[5] = Day 1, daily transfer to fresh agar
[6] = Day 2, daily transfer to fresh agar
[7] = Day 3, daily transfer to fresh agar
[8] = Day 4, daily transfer to fresh agar
[9] = Day 7, daily transfer to fresh agar
[10] = Day 8, daily transfer to fresh agar
[11] = Day 9, daily transfer to fresh agar
[12] = 1% impregnation solution in 90% THF+10% Methanol
[13] = 3% impregnation solution in 90% THF+10% Methanol
[14] = 6% impregnation solution in 90% THF+10% Methanol
[15] = 10% impregnation solution in 90% THF+10% Methanol

Row | SMILES | Cumulative release of the chlorhexidine/fatty acid salts from the coated polyurethane tubes ([1]; Day 1) [g] | Cumulative release of the chlorhexidine/fatty acid salts from the coated polyurethane tubes ([1]; Day 7) [g] | Cumulative release of the chlorhexidine/fatty acid salts from the coated polyurethane tubes ([1]; Day 14) [g] | Cumulative release of the chlorhexidine/fatty acid salts from the coated polyurethane tubes ([1]; Day 21) [g] | Cumulative release of the chlorhexidine/fatty acid salts from the coated polyurethane tubes ([1]; Day 28) [g] | Time by which approximately all of the salt was released from the coated sample [1] [days] | Log10 reduction of adhered Pseudomonas aeruginosa onto the surface of coated polyurethane tubes ([2]; 7 days) | Log10 reduction of adhered Pseudomonas aeruginosa onto the surface of coated polyurethane tubes ([2]; 14 days) | Log10 reduction of adhered Pseudomonas aeruginosa onto the surface of coated polyurethane tubes ([2]; 21 days) | ZOI produced by impregnated polyurethane foam punches against Candida albicans [3, 5] [mm] | ZOI produced by impregnated polyurethane foam punches against Candida albicans [3, 6] [mm] | ZOI produced by impregnated polyurethane foam punches against Candida albicans [3, 7] [mm] | ZOI produced by impregnated polyurethane foam punches against Candida albicans [3, 8] [mm] | ZOI produced by impregnated polyurethane foam punches against Candida albicans [3, 9] [mm] | ZOI produced by impregnated polyurethane foam punches against Candida albicans [3, 10] [mm] | ZOI produced by impregnated polyurethane foam punches against Candida albicans [3, 11] [mm] | Zone of inhibition compared with the other salts (in words) [3] | Salt content in silicone elastomeric medical article [4, 12] [µg/cm] | Salt content in silicone elastomeric medical article [4, 13] [µg/cm] | Salt content in silicone elastomeric medical article [4, 14] [µg/cm] | further results
1 | CC(=O)O.CC(=O)O.NC(=N\CCCCCC/N=C(N)/N=C(\N)Nc1ccc(Cl)cc1)/N=C(\N)Nc1ccc(Cl)cc1 [Chlorhexidine Acetate, chlorhexidine diacetate, reference compound] | 155 | 222 | 224 | 224 | 224 | ≤ 7 | 5 | 0 | 0 | 12 | 11 | 14 | 8 | 8 | 12 | 12 | zones of inhibition that were smaller | 262 | 395 | 374 | Percent release of the initial salt concentration from the coated sample ([1]; within 1 day (FIG. 1)): approximately 70%; Inhibition of adherence / antimicrobial effect against Pseudomonas aeruginosa (in words) ([2]; listed as chlorhexidine acetate): inhibition was not apparent at 14 days or thereafter; Inhibition of adherence / antimicrobial effect against Pseudomonas aeruginosa (in words) ([2]; listed as chlorhexidine diacetate): not able to provide an antimicrobial effect against Pseudomonas aeruginosa after 7 days; Salt content in silicone elastomeric medical article [4, 15]: 439 µg/cm
2 | CCCCCCCCCCCC(=O)O.NC(=NCCCCCCN=C(N)N=C(N)Nc1ccc(Cl)cc1)N=C(N)Nc1ccc(Cl)cc1 [Chlorhexidine Laurate, chlorhexidine dilaurate] | 62 | 145 | 165 | 167 | 167 | ≤ 14 | 7 | 0 | 0 | 27 | 31 | 32 | 27 | 23 | 31 | 29 | relatively largest ZOI | 249 | 408 | 526 | Inhibition of adherence / antimicrobial effect against Pseudomonas aeruginosa (in words) [2]: inhibition was not apparent at 14 days or thereafter; Salt content in silicone elastomeric medical article [4, 15]: 614 µg/cm; Absorption into silicone tubing compared with the other salts (in words) ([4]; silicone tubing, 90% THF+10% Methanol): absorbed at much higher concentrations than the other salts
